Literature values as cited in patent US20210307321A1, “CAPSULE SUSPENSIONS WITH AGROCHEMICAL ACTIVE INGREDIENTS” (priority 2018, published 2021).

O=C(Nc1ccc(F)cc1F)c1cccnc1Oc1cccc(C(F)(F)F)c1 [Diflufenican, 2′,4′-Difluoro-2-(a,a,a-trifluoro-m-tolyloxy)nicotinanilide]
solubility in non-water miscible solvents: very low solubility
